According to US11083729B2, “Methods of treating cancer with small molecule NF-κB inhibitors” (ImmuneTarget, Inc., priority 2017, dated 2021):

What was measured:
Type in all cases: cell-based
AGS = experiment: CellTiter-Glo IG50, Example 8, AGS; details: Homo sapiens, 72 hours
Experimental: (§1) Various pancreatic, liver, colon, breast, and stomach cancer cell lines were exposed to the NF-κB inhibitors of the present invention, including, for example, IT-839, IT-843, IT-848, and IT-878, and assessed for IG50 in the CellTiter Glo 2.0 assay.
(§2) The cells were cultured in an atmosphere of 37° C., 5% CO2 and 95% humidity. All culture media and FBS were purchased from GIBCO, Hyclone or Sigma, USA. The media used for cell culture is described in the table below.
(§3) The cells were harvested during the logarithmic growth period and counted. Cell concentrations were adjusted to the appropriate number in appropriate medium and 90 μl cell suspensions were added to 96-well plates. When cells were added, the plates were shaken gently to distribute the cells evenly. Cells were incubated at 37° C. and 5% CO2.
(§4) 3× serial dilutions of test compound stock solutions with respective solvents were prepared. The stock solutions were diluted with culture medium to generate 10× working solutions of the test compounds. 10 μl of the 10× test compound solutions were added to each well in triplicate for each concentration. Plates were incubated for 72 hours in a humidified incubator at 37° C. and 5% CO2.
(§5) CellTiter-Glo (CTG) solution was thawed and equilibrated to room temperature. 50 μl of CTG were added to each well and the contents were mixed for 2 minutes on a plate shaker. Cells were incubated for 10 minutes before luminescence signal was recorded using Envision.
(§6) Cell viability was plotted with GraphPad Prism version 5 and the IG50 was calculated for each cell line. The graphical curves were fitted using a nonlinear regression model with a sigmoidal dose response. IG50 is the concentration of test drug where 100×T/C=50 (the optical density of the test well after a 3-day period of exposure to test drug is T; the control optical density is C).

HCT116 = experiment: CellTiter-Glo IG50, Example 8, HCT116; details: Homo sapiens, HCT-116, HCT116, 72 hours
Experimental: as §1, §2, §3, §4, §5, §6

LoVo = experiment: CellTiter-Glo IG50, Example 8, LoVo; details: Homo sapiens, 72 hours
Experimental: as §1, §2, §3, §4, §5, §6

HT-29 = experiment: CellTiter-Glo IG50, Example 8, HT-29; details: Homo sapiens, HT-29, 72 hours
Experimental: as §1, §2, §3, §4, §5, §6

MKN45 = experiment: CellTiter-Glo IG50, Example 8, MKN45; details: Homo sapiens, MKN-45, MKN45, 72 hours
Experimental: as §1, §2, §3, §4, §5, §6

KATO III = experiment: CellTiter-Glo IG50, Example 8, KATO III; details: Homo sapiens, 72 hours
Experimental: as §1, §2, §3, §4, §5, §6

Hep3B [1] = experiment: CellTiter-Glo IG50, Example 8, Hep3B; details: Homo sapiens, 72 hours
Experimental: as §1, §2, §3, §4, §5, §6

PLC/PRF/5 [2] = experiment: CellTiter-Glo IG50, Example 8, PLC/PRF/5; details: Homo sapiens, PLC/PRF/5, 72 hours
Experimental: as §1, §2, §3, §4, §5, §6

MIAPACA-2 = experiment: CellTiter-Glo IG50, Example 8, MIAPACA-2; details: Homo sapiens, MIA PaCa-2, MIAPACA-2, 72 hours
Experimental: as §1, §2, §3, §4, §5, §6

T47D = experiment: CellTiter-Glo IG50, Example 8, T47D; details: Homo sapiens, 72 hours
Experimental: as §1, §2, §3, §4, §5, §6

Hep3B [3] = experiment: CellTiter-Glo IG50, Example 9 HCC panel, Hep3B; details: Homo sapiens, 72 hours
Experimental: as §3, §4, §5, §6, §2
(§7) Following the cell culture protocol and data analysis methods described in Example 8, the following IG50 results (in μM) were observed: […]

SNU878 [4] = experiment: CellTiter-Glo IG50, Example 9 HCC panel, SNU878; details: SNU878, 72 hours
Experimental: as §3, §4, §5, §6, §2, §7

HepG2 [5] = experiment: CellTiter-Glo IG50, Example 9 HCC panel, HepG2; details: Homo sapiens, HepG2, 72 hours
Experimental: as §3, §4, §5, §6, §2, §7

HUH7 [6] = experiment: CellTiter-Glo IG50, Example 9 HCC panel, HUH7; details: Homo sapiens, Huh-7, HUH7, 72 hours
Experimental: as §3, §4, §5, §6, §2, §7

PBMC [7] = experiment: CellTiter-Glo IG50, Example 9 HCC panel, PBMC; details: 72 hours
Experimental: as §3, §4, §5, §6, §2, §7

PLC/PRF/5 [8] = experiment: CellTiter-Glo IG50, Example 9 HCC panel, PLC/PRF/5; details: Homo sapiens, PLC/PRF/5, 72 hours
Experimental: as §3, §4, §5, §6, §2, §7

PANC-1 = experiment: CellTiter-Glo IG50, Example 8, PANC-1; details: Homo sapiens, PANC-1, 72 hours
Experimental: as §1, §2, §3, §4, §5, §6

JHH5 [9] = experiment: CellTiter-Glo IG50, Example 9 HCC panel, JHH5; details: JHH5, 72 hours
Experimental: as §3, §4, §5, §6, §2, §7

MDA-MB-231 = experiment: CellTiter-Glo IG50, Example 8, MDA-MB-231; details: Homo sapiens, MDA-MB-231, 72 hours
Experimental: as §1, §2, §3, §4, §5, §6

Capan-1 = experiment: CellTiter-Glo IG50, Example 8, Capan-1; details: Homo sapiens, Capan-1, 72 hours
Experimental: as §1, §2, §3, §4, §5, §6

HepG2 [10] = experiment: CellTiter-Glo IG50, Example 8, HepG2; details: Homo sapiens, HepG2, 72 hours
Experimental: as §1, §2, §3, §4, §5, §6

MCF-7 = experiment: CellTiter-Glo IG50, Example 8, MCF-7; details: Homo sapiens, MCF7, MCF-7, 72 hours
Experimental: as §1, §2, §3, §4, §5, §6

SNU878 [11] = experiment: CellTiter-Glo IG50, Example 10 HCC panel, SNU878; details: SNU878, 72 hours
Experimental: as §3, §4, §5, §6, §2
(§8) Following the cell culture protocol and data analysis method described in Example 8, the following IG50 results (in μM) were observed: […]

JHH5 [12] = experiment: CellTiter-Glo IG50, Example 10 HCC panel, JHH5; details: JHH5, 72 hours
Experimental: as §3, §4, §5, §6, §2, §8

HUH7 [13] = experiment: CellTiter-Glo IG50, Example 10 HCC panel, HUH7; details: Homo sapiens, Huh-7, HUH7, 72 hours
Experimental: as §3, §4, §5, §6, §2, §8

PBMC [14] = experiment: CellTiter-Glo IG50, Example 10 HCC panel, PBMC; details: 72 hours
Experimental: as §3, §4, §5, §6, §2, §8

PLC/PRF/5 [15] = experiment: CellTiter-Glo IG50, Example 10 HCC panel, PLC/PRF/5; details: Homo sapiens, PLC/PRF/5, 72 hours
Experimental: as §3, §4, §5, §6, §2, §8

Hep3B [16] = experiment: CellTiter-Glo IG50, Example 10 HCC panel, Hep3B; details: Homo sapiens, 72 hours
Experimental: as §3, §4, §5, §6, §2, §8

HepG2 [17] = experiment: CellTiter-Glo IG50, Example 10 HCC panel, HepG2; details: Homo sapiens, HepG2, 72 hours
Experimental: as §3, §4, §5, §6, §2, §8

SMILES	IC50 (AGS) [µM]	IC50 (HCT116) [µM]	IC50 (LoVo) [µM]	IC50 (HT-29) [µM]	IC50 (MKN45) [µM]	IC50 (Hep3B [1]) [µM]	IC50 (MIAPACA-2) [µM]	IC50 (T47D) [µM]	IC50 (Hep3B [3]) [µM]	IC50 (SNU878 [4]) [µM]	IC50 (HepG2 [5]) [µM]	IC50 (HUH7 [6]) [µM]	IC50 (PLC/PRF/5 [8]) [µM]	IC50 (PANC-1) [µM]	IC50 (JHH5 [9]) [µM]	IC50 (MDA-MB-231) [µM]	IC50 (MCF-7) [µM]	IC50 (KATO III) [µM]	IC50 (PBMC [7]) [µM]	IC50 (Capan-1) [µM]	other results
CCCCCOc1ccc2cc3c(=O)[nH]c(=O)nc-3oc2c1Cl [IT-843]	4.44	9.4	2.89	6.61	> 16	1.42	10.2	4.96	3.6	> 16	4.53	5.16	> 16	5.54	13.3	2.68	6.81	> 16	1.09	> 16	IC50 (PLC/PRF/5 [2]): > 16 µM; IC50 (HepG2 [10]): 3.94 µM
O=C(O)CCCCCOc1ccc2cc3c(=O)[nH]c(=O)nc-3oc2c1Cl [IT-855]									> 16	9.15	> 16	> 16	> 16		8.15				> 16		
CC(C)CCCOc1cc2oc3nc(=O)[nH]c(=O)c-3cc2cc1F [IT-839]	> 16	> 16	4.34	> 16	> 16	3.35	> 16	> 16						6.93		2.01	> 16	> 16		> 16	IC50 (PLC/PRF/5 [2]): > 16 µM; IC50 (HepG2 [10]): 10.5 µM
CCCCCCCOc1ccc2cc3c(=O)[nH]c(=O)nc-3oc2c1Cl [IT-846]									2.34	> 16	4.27	3.39	8.51		> 16				0.456		

More lines, main results first:

IC50 (AGS) [µM]	IC50 (HCT116) [µM]	IC50 (LoVo) [µM]	IC50 (HT-29) [µM]	IC50 (MKN45) [µM]	IC50 (Hep3B [1]) [µM]	IC50 (MIAPACA-2) [µM]	IC50 (T47D) [µM]	IC50 (Hep3B [3]) [µM]	IC50 (SNU878 [4]) [µM]	IC50 (HepG2 [5]) [µM]	IC50 (HUH7 [6]) [µM]	IC50 (PLC/PRF/5 [8]) [µM]	IC50 (PANC-1) [µM]	IC50 (JHH5 [9]) [µM]	IC50 (MDA-MB-231) [µM]	IC50 (MCF-7) [µM]	SMILES	IC50 (KATO III) [µM]	IC50 (PBMC [7]) [µM]	IC50 (Capan-1) [µM]	other results
31.9	5.2	27	15.9	4.72													O=c1[nH]cc(F)c(=O)[nH]1 [5-FU, 5-fluorouracil, reference compound]	> 64			
								3.26	> 16	> 16	5.4	> 16		> 16			CCCCCCOc1cc2oc3nc(=O)[nH]c(=O)c-3cc2cc1F [IT-835]		0.985		
								1.81	10.7	4.14	2.72	7.66		8.11			CC(C)(C)CCOc1ccc2cc3c(=O)[nH]c(=O)nc-3oc2c1Cl [IT-845]		0.274		IC50 (SNU878 [11]): 9.8 µM; IC50 (JHH5 [12]): 10.1 µM; IC50 (HUH7 [13]): 6.02 µM; IC50 (PBMC [14]): 2.4 µM; IC50 (PLC/PRF/5 [15]): 9.22 µM; IC50 (Hep3B [16]): 4.03 µM; IC50 (HepG2 [17]): 6.95 µM
						0.012	> 16						> 16		> 16	> 16	Nc1ccn([C@@H]2O[C@H](CO)[C@@H](O)C2(F)F)c(=O)n1 [Gemcitabine, gemcitabine, reference compound]			0.051	
								> 16	> 16	4.9	17.7	> 16		8.5			COCCOCCOc1ccc2cc3c(=O)[nH]c(=O)nc-3oc2c1Cl [IT-876]		8.67		
> 16	> 16	> 16	> 16	> 16	3.45	17.8	> 16						> 16		> 16	> 16	COCCCCOc1ccc2cc3c(=O)[nH]c(=O)nc-3oc2c1Cl [IT-878]	> 16		> 16	IC50 (PLC/PRF/5 [2]): > 16 µM; IC50 (HepG2 [10]): > 16 µM
